Experiment [1] relates to E. coli DH5α strain. The experiment is described as follows: Minimal inhibitory concentration against growth of E. coli DH5α. It counts as cell-based. The following applies: Escherichia coli, read-out: MIC (E. coli DH5α).
In experiment [2] the target is T1, MraY from Aquifex aeolicus (Aquifex aeolicus, UniProt O66465).
T1 sequence (O66465 1-359): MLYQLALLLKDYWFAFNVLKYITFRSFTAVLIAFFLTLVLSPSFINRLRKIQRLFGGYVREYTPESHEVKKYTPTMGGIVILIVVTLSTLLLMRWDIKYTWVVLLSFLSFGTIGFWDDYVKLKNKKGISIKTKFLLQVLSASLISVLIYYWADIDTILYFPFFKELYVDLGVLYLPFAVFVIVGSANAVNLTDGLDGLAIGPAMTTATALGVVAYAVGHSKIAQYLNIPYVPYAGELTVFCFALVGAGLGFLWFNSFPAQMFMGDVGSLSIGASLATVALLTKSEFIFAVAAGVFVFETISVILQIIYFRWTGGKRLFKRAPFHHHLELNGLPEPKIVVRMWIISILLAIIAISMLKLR
It counts as biochemical.

The target of experiment [3] is MraY from C. bolteae (Enterocloster bolteae, UniProt R0BTE9). The experiment is described as follows: Fluorescence-based in vitro MraY assay, MraY from C. bolteae. It counts as biochemical, Clostridium bolteae. The following applies: IC50 ± SD.
Experiment [4] has as its system E. coli efflux-deficient ΔtolC mutant. The experiment is described as follows: Minimal inhibitory concentration against growth of E. coli ΔtolC. It counts as cell-based.
Experiment [5] has as its target T2, MraY from S. aureus (Staphylococcus aureus, UniProt Q2FZ93).
T2 sequence (Q2FZ93 1-321): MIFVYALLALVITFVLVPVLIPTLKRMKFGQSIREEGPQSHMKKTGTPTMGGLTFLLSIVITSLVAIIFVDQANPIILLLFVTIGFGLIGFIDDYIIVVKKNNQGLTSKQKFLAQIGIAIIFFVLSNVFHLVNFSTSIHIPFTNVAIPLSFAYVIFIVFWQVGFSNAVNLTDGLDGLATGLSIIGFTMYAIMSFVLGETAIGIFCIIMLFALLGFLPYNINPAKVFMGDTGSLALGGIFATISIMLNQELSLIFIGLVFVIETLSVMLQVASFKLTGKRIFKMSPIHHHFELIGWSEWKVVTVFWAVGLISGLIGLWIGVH
The experiment is described as follows: biochemical. The format is biochemical.

For experiment [6], the system named is S. aureus subsp. aureus (Newman strain). The experiment is described as follows: Minimal inhibitory concentration against growth of S. aureus. It counts as cell-based.
The mark [7] stands for this setting: IC50 (MraY C. bolteae crude), protein in crude membranes.
Setting [8] is: IC50 (MraY C. bolteae solubil.), protein in solubilized and purified form.
[9] abbreviates: read-out: IC50 (MraY Aquifex aeolicus), solubilized and purified form, IC50 ± SD.
Where [10] appears, read: read-out: IC50 (MraY C. bolteae crude), protein in crude membranes.
Setting [11] is: read-out: IC50 (MraY C. bolteae solubil.), protein in solubilized and purified form.
The mark [12] stands for this setting: read-out: IC50 (MraY S. aureus), crude membranes, IC50 ± SD.

≈ marks a conversion by molar mass, not a printed value. Like-named read-outs stand apart in the source and are kept apart here.

Take `CO[C@H]1[C@H](O[C@H]([C@H]2O[C@@H](n3ccc(=O)[nH]c3=O)[C@H](O)[C@@H]2O)[C@H](NCCCNC(=O)[C@H](CC(C)C)NC(=O)[C@@H](NC(=O)N[C@H](C(=O)O)C(C)C)[C@@H]2CCNC(=N)N2)C(=O)O)O[C@H](CN)[C@H]1O` [D1 7, muraymycin D1]: the MIC in experiment [1] was greater than 32 µg/mL. The IC50 in experiment [2] is 99000 ± 30000 pM; in experiment [3] (setting [7]), 40000 pM; in experiment [3] (setting [8]) it was 380000 ± 110000 pM; in experiment [5], 480 ± 130 pM. Besides, the “fold lower inhibitory activity than C1 6 (Aquifex aeolicus)” value in experiment [2] (solubilized Aquifex aeolicus protein, relative to C1 6) is given as “ca. 280 fold”. For the same compound, in experiment [4], the “MIC (E. coli ΔtolC)” value was found to be 1 µg/mL (≈ 1.08 µM). Moreover, in experiment [5] (crude membranes only (S. aureus and C. bolteae MraY)), the “fold difference in MraY inhibition between C1 6 and D1 7” value is listed as 30- to 430 fold. For the same compound, the “fold less active MraY inhibitor than C1 6 (S. aureus)” value in experiment [5] (crude membranes, relative to C1 6) is given as “ca. 30 fold”.

In the case of `CO[C@H]1[C@H](O[C@H]([C@H]2O[C@@H](n3ccc(=O)[nH]c3=O)[C@H](O)[C@@H]2O)[C@H](NCCCNC(=O)[C@@H](NC(=O)[C@@H](NC(=O)N[C@H](C(=O)O)C(C)C)[C@@H]2CCNC(=N)N2)[C@@H](OC(=O)CCCCCCCCCCCCN(O)C(=N)N)C(C)C)C(=O)O)O[C@H](CN)[C@H]1O` [A1 3, muraymycin A1], the “antibacterial activity against S. aureus in words” value in experiment [6] is listed as “only congener with notable activity against S. aureus”. In addition, the minimal inhibitory concentration (MIC) in experiment [1] is greater than 32 µg/mL. Also, the IC50 in experiment [2] (setting [9]) was 110 ± 20 pM; in experiment [3] (setting [10]), 17 pM; in experiment [3] (setting [11]), 160 ± 40 pM; in experiment [5] (setting [12]) it was 27 ± 3 pM. The “MIC (E. coli ΔtolC)” value in experiment [4] is 2 µg/mL (≈ 1.65 µM).

Regarding `CC(C)C[C@H](NC(=O)[C@@H](NC(=O)N[C@H](C(=O)O)C(C)C)[C@@H]1CCNC(=N)N1)C(=O)NCCCN[C@H](C(=O)O)[C@H](O[C@@H]1O[C@H](CN)[C@@H](O)[C@H]1O)[C@H]1O[C@@H](n2ccc(=O)[nH]c2=O)[C@H](O)[C@@H]1O` [D2 8, muraymycin D2], in experiment [1], the MIC was greater than 32 µg/mL. For the same compound, the IC50 in experiment [2] is 46000 ± 13000 pM; in experiment [3] (setting [7]), 25000 pM; in experiment [3] (setting [8]), 200000 ± 30000 pM; in experiment [5], 390 ± 110 pM. The “MIC (E. coli ΔtolC)” value in experiment [4] came out at 1 µg/mL (≈ 1.09 µM).

On to `CO[C@H]1[C@H](O[C@H]([C@H]2O[C@@H](n3ccc(=O)[nH]c3=O)[C@H](O)[C@@H]2O)[C@H](NCCCNC(=O)[C@@H](NC(=O)[C@@H](NC(=O)N[C@H](C(=O)O)C(C)C)[C@@H]2CCN=C(N)N2)[C@@H](OC(=O)CCCCC(C)C)C(C)C)C(=O)O)O[C@H](CN)[C@H]1O` [B6 5, muraymycin B6], for which, in experiment [1], the MIC is greater than 32 µg/mL. Further, the IC50 in experiment [2] (setting [9]) was 190 ± 20 pM; in experiment [3] (setting [10]) it was 36 pM; in experiment [3] (setting [11]), 380 ± 30 pM; in experiment [5] (setting [12]), 21 ± 2 pM. Also, the “MIC (E. coli ΔtolC)” value in experiment [4] came to 1 µg/mL (≈ 0.933 µM).

`CO[C@H]1[C@H](O[C@H]([C@H]2O[C@@H](n3ccc(=O)[nH]c3=O)[C@H](O)[C@@H]2O)[C@H](NCCCNC(=O)[C@@H](NC(=O)[C@@H](NC(=O)N[C@H](C(=O)O)C(C)C)[C@@H]2CCNC(=N)N2)[C@@H](O)C(C)C)C(=O)O)O[C@H](CN)[C@H]1O` [C1 6, muraymycin C1]: in experiment [1], the MIC was greater than 32 µg/mL. In addition, the IC50 is 93 pM in experiment [3] (setting [7]), 450 ± 170 pM in experiment [3] (setting [8]) and 16 ± 2 pM in experiment [5]. Also, the “MIC (E. coli ΔtolC)” value in experiment [4] turned out to be 1 µg/mL (≈ 1.06 µM).

On to `CO[C@H]1[C@H](O[C@H]([C@H]2O[C@@H](n3ccc(=O)[nH]c3=O)[C@H](O)[C@@H]2O)[C@H](NCCCNC(=O)[C@@H](NC(=O)[C@@H](NC(=O)N[C@H](C(=O)O)C(C)C)[C@@H]2CCN=C(N)N2)[C@@H](OC(=O)CCCCCCC(C)C)C(C)C)C(=O)O)O[C@H](CN)[C@H]1O` [B2 4, muraymycin B2], for which the MIC in experiment [1] is greater than 32 µg/mL. The IC50 is 110 ± 10 pM in experiment [2] (setting [9]), 8.3 pM in experiment [3] (setting [10]), 140 ± 10 pM in experiment [3] (setting [11]) and 10 ± 2 pM in experiment [5] (setting [12]). For the same compound, the “MIC (E. coli ΔtolC)” value in experiment [4] stood at 1 µg/mL (≈ 0.909 µM).

(Values after PMC6019934 (ChemMedChem, 2018).)
